Consider twelve compounds from ChEMBL document CHEMBL1201862, “PubChem BioAssay data set” (2004).

Each structure is given as a SMILES string.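 Protocol summary: plate cells (96-well), add compound at 5 concentrations, incubate 48 h, interpolate endpoints linearly. The concentration for 50% growth inhibition is given as GI50.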 The source made the active and inactive calls. Cut-off read from the data, not from the text of the source: active = GI50 up to about 1.1 µM and inactive = higher. A value given as a limit tells only on which side of the number the result lay.

Common to all, as to experiment: inhibition of tumour cell growth, NCI panel, 48 h
The subject of assay [1] is SF-295.
In assay [2] the test system is COLO 205.
Assay [3] has as its system KM12.
The subject of assay [4] is 786-0.
The subject of assay [5] is UACC-257.
Assay [6] deals with ACHN.
Assay [7] relates to NCI-H23.
Assay [8] relates to MOLT-4.
The test system of assay [9] is HCT-15.
For assay [10], the system named is TK-10.
In assay [11] the test system is SK-OV-3.
In assay [12] the test system is SN12C.
For assay [13], the system named is SK-MEL-28.
Assay [14] has as its system Malme-3M.
Assay [15] deals with A549.
Assay [16] concerns NCI-H460.

Turning to `CC1(Br)CC2OC3(Br)C=CC(C)(O)C2(CC1=O)C3(C)C` (configuration not stated), the GI50 in [1], in assay [2], in assay [3], in assay [4], in assay [5] and in assay [6] was > 100 µM (inactive) throughout. Further, the GI50 in [7] is > 100 µM (inactive); in [8], > 94 µM (inactive); in assay [9], more than 100 µM; in assay [10], > 100 µM (inactive); in assay [11] it was > 100 µM (inactive); in assay [12], > 100 µM (inactive). The GI50 in assay [13], in assay [14], in assay [15] and in assay [16] was > 100 µM (inactive) each time.
As for `O=C1C2C(C(=O)N1O)N(Cc1ccccc1)C(=O)N2Cc1ccccc1` (configuration not stated), the GI50 in assay [1], in assay [2], in [3], in assay [4], in assay [5] and in assay [6] was > 100 µM (inactive) in each case. The GI50 in [7] is > 100 µM (inactive); in assay [8] it was > 100 µM (inactive); in [9], more than 100 µM; in [10] it was > 100 µM (inactive); in assay [11], > 100 µM (inactive); in [12], > 100 µM (inactive). Also, the GI50 in assay [13], in [14], in [15] and in assay [16] was > 100 µM (inactive) in each case.
In the case of `OC12CCCCCC1(N1CCOCC1)c1ccccc12` (configuration not stated), the GI50 in assay [1], in assay [2], in [3], in assay [4], in [5] and in assay [6] was > 100 µM (inactive) throughout. For the same compound, the GI50 is > 100 µM (inactive) in [7]; > 100 µM (inactive) in assay [8]; more than 100 µM in assay [9]; > 100 µM (inactive) in assay [10]; > 100 µM (inactive) in assay [11]; > 100 µM (inactive) in assay [12]. Besides, the GI50 in [13], in [14], in assay [15] and in [16] was > 100 µM (inactive) throughout.
As for `O=C(Cc1ccccc1)NN1C(=O)C(Cl)C1c1cc(Br)cc(Br)c1O` (configuration not stated), the GI50 was 12.3 µM (inactive) in assay [1]; 21.3 µM (inactive) in assay [2]; 40.1 µM (inactive) in assay [3]; 10.1 µM (inactive) in assay [4]; 11.5 µM (inactive) in assay [5]; 6.35 µM (inactive) in assay [6]. Besides, the GI50 in assay [7] is 12.2 µM (inactive); in assay [8], 2.62 µM (inactive); in [9], 6.79 µM; in assay [10], 17.8 µM (inactive); in [11] it was 15.1 µM (inactive); in assay [12], 21.3 µM (inactive). Besides, the GI50 is 10.3 µM (inactive) in assay [13], 17.7 µM (inactive) in assay [14], 15.9 µM (inactive) in assay [15] and 3.87 µM (inactive) in [16].
On to `CC(C)C(=O)Nc1nc2c(ncn2C2OC(CO)C(O)C2O)c(=O)[nH]1` (configuration not stated), for which the GI50 in assay [1], in assay [2], in [3], in assay [4], in [5] and in assay [6] was > 100 µM (inactive) in each case. For the same compound, the GI50 was > 100 µM (inactive) in [7]; > 100 µM (inactive) in [8]; more than 100 µM in assay [9]; > 100 µM (inactive) in assay [10]; > 100 µM (inactive) in assay [11]; > 100 µM (inactive) in [12]. For the same compound, the GI50 in assay [13], in assay [14], in assay [15] and in assay [16] was > 100 µM (inactive) each time.
As to `O=Cc1ccc2c(c1-c1c(C=O)ccc3c1OCO3)OCO2`, the GI50 in assay [1], in [2], in assay [3], in assay [4], in assay [5] and in [6] was > 100 µM (inactive) throughout. Besides, the GI50 in assay [7] is > 100 µM (inactive); in assay [8], > 100 µM (inactive); in assay [9], more than 100 µM; in [10] it was > 100 µM (inactive); in assay [11], > 100 µM (inactive); in assay [12] it was > 100 µM (inactive). In addition, the GI50 in assay [13], in [14], in [15] and in assay [16] was > 100 µM (inactive) in each case.
For `CN(C)c1ccc2nc3c(ccc4ccccc43)[o+]c2c1`, the GI50 in [1] was 15.5 µM (inactive); in assay [2] it was 16.3 µM (inactive); in assay [3] it was 15 µM (inactive); in [4] it was 15.5 µM (inactive); in assay [5], 4.67 µM (inactive); in [6], 13.8 µM (inactive). The GI50 in [7] was 14 µM (inactive); in assay [8], 2.99 µM (inactive); in [9] it was 11.8 µM; in [10], 17.3 µM (inactive); in [11], 15.7 µM (inactive); in [12], 17.1 µM (inactive). For the same compound, the GI50 in [13] is 14.8 µM (inactive); in assay [14] it was 12.9 µM (inactive); in assay [15] it was 18.7 µM (inactive); in assay [16] it was 16.2 µM (inactive).
On to `COc1ccc2c(c1)CCc1c(-c3n[nH]c4c3CCc3cc(OC)ccc3-4)n[nH]c1-2`, for which the GI50 in assay [1] was 17.2 µM (inactive); in assay [2] it was 50.2 µM (inactive); in assay [3], 33.9 µM (inactive); in assay [4] it was 19 µM (inactive); in assay [5], 21.5 µM (inactive); in assay [6], 29.9 µM (inactive). For the same compound, the GI50 is 79.4 µM (inactive) in assay [7]; 58.6 µM (inactive) in [8]; 35.1 µM in assay [9]; > 100 µM (inactive) in assay [10]; 6.25 µM (inactive) in assay [11]; 57.4 µM (inactive) in assay [12]. Also, the GI50 was 33.8 µM (inactive) in assay [13], 37.9 µM (inactive) in assay [14], 30.3 µM (inactive) in [15] and 39 µM (inactive) in assay [16].
For `O=[N+]([O-])c1nccn1CC(O)c1ccc(F)cc1` (configuration not stated), the GI50 in assay [1], in assay [2], in assay [3], in [4], in [5] and in [6] was > 100 µM (inactive) throughout. Moreover, the GI50 in assay [7] is > 100 µM (inactive); in [8], > 100 µM (inactive); in [9], more than 100 µM; in assay [10], > 100 µM (inactive); in [11], > 100 µM (inactive); in [12], > 100 µM (inactive). The GI50 in assay [13], in assay [14], in [15] and in assay [16] was > 100 µM (inactive) in each case.
`O=C(Sc1sc(=S)sc1SC(=O)c1ccccc1)c1ccccc1`: the GI50 is 33.7 µM (inactive) in assay [1]; > 100 µM (inactive) in [2]; 37.4 µM (inactive) in assay [3]; > 100 µM (inactive) in [4]; > 100 µM (inactive) in assay [5]; > 100 µM (inactive) in [6]. Moreover, the GI50 in [7] was > 100 µM (inactive); in assay [8] it was > 100 µM (inactive); in assay [9], more than 100 µM; in assay [10], > 100 µM (inactive); in [11] it was 22.9 µM (inactive); in assay [12] it was 93.5 µM (inactive). Moreover, the GI50 was > 100 µM (inactive) in assay [13], 78.3 µM (inactive) in [14], 27.6 µM (inactive) in assay [15] and > 10 µM (inactive) in assay [16].
For the compound `CC(C)(O)[C@@H]1CCC(C)([C@H]2[C@@H](O)CC3(C)C4CC(OC5OC(CO)C(O)C(O)C5O)C5C(C)(C)[C@@H](OC6OCC(O)C(O)C6O)CC[C@@]56C[C@@]46CC[C@]23C)O1` (some centres not stated), the GI50 in [1], in [2], in assay [3], in assay [4], in [5] and in assay [6] was > 100 µM (inactive) in each case. For the same compound, the GI50 is > 100 µM (inactive) in assay [7]; > 100 µM (inactive) in [8]; more than 100 µM in [9]; > 100 µM (inactive) in assay [10]; > 100 µM (inactive) in assay [11]; > 100 µM (inactive) in assay [12]. For the same compound, the GI50 in [13], in assay [14], in [15] and in [16] was > 100 µM (inactive) each time.
As for `CCN(CC)CCNc1ccc2nnn3c4ccc(OC)cc4c(=O)c1c23`, the GI50 in [1] was 5.14 µM (inactive); in assay [2] it was 6.5 µM (inactive); in assay [3], 3.27 µM (inactive); in [4] it was 4.31 µM (inactive); in [5] it was 12.5 µM (inactive); in assay [6] it was 4.71 µM (inactive). Also, the GI50 in assay [7] is 8.49 µM (inactive); in [8], 1.93 µM (inactive); in assay [9], 6.17 µM; in [10], 9.25 µM (inactive); in assay [11], 10.2 µM (inactive); in [12], 5.96 µM (inactive). The GI50 in assay [13] was 15.6 µM (inactive); in assay [14], 10.4 µM (inactive); in assay [15], 5.56 µM (inactive); in assay [16], 3.17 µM (inactive).
